Measured values published in publication PMC11355796, “Blue and Yellow Laccases from Alternaria sp. Strain HU: Characterization and Immobilization on Magnetic Nanoparticles” (Journal of Fungi, 2024).
Structures can show the parent of a compound that is named as a salt.

Assays:
LacHU1 = tested on: T1, LacHU1; assay: initial-rate oxidation assay, Michaelis-Menten fit; assay type: biochemical, Alternaria sp. HU; details: free enzyme; apparent constant; read-out: Kinetic Parameters / KM, μM / LacHU1
T1 construct: native secreted enzyme purified from culture liquid; signal peptide of 18 residues
Description: initial-rate oxidation assay, Michaelis-Menten fit on LacHU1

LacHU2 = tested on: T2, LacHU2; assay: initial-rate oxidation assay, Michaelis-Menten fit; assay type: biochemical, Alternaria sp. HU; details: free enzyme; apparent constant; read-out: Kinetic Parameters / KM, μM / LacHU2
T2 construct: native secreted enzyme purified from culture liquid; signal peptide of 18 residues
Description: initial-rate oxidation assay, Michaelis-Menten fit on LacHU2

| Compound | Km (LacHU1) [µM] | Km (LacHU2) [µM] |
| --- | --- | --- |
| COc1cccc(OC)c1O [2,6-DMP] | 10 ± 2 | 4300 |
| OCCN1c2ccccc2Oc2ccccc21 [2-(10H-phenoxazin-10-yl)ethanol] | 40 ± 10 | 200 ± 50 |
| CCn1c(=NN=c2sc3cc(S(=O)(=O)O)ccc3n2CC)sc2cc(S(=O)(=O)O)ccc21 [ABTS, 2,2’-azino-bis(3-ethylbenzothiazoline-6-sulfonic acid) diammonium salt] | 60 ± 10 | 5600 |
| O=C(O)/C=C/c1ccc(O)c(O)c1 [Caffeic acid] | 50 ± 3 | 400 ± 30 |
| Oc1ccccc1O [Catechol] | – | 20000 |
| O=C(/C=C/c1ccc(O)c(O)c1)O[C@@H]1C[C@](O)(C(=O)O)C[C@@H](O)[C@H]1O [Chlorogenic acid] | – | 90 ± 40 |
| COc1cc(/C=C/C(=O)O)ccc1O [Ferulic acid] | 50 ± 4 | 230 ± 30 |
| O=c1c(O)c(-c2ccc(O)c(O)c2)oc2cc(O)ccc12 [Fisetin] | 15 ± 1 | – |
| Oc1ccc(O)cc1 [Hydroquinone] | – | 13000 |
| O=c1c(O)c(-c2cc(O)c(O)c(O)c2)oc2cc(O)cc(O)c12 [Myricetin] | 2 ± 0.3 | – |
| CN(C)CCCN1c2ccccc2Sc2ccccc21 [Promazine hydrochloride] | – | 2600 |
| O=c1c(O)c(-c2ccc(O)c(O)c2)oc2cc(O)cc(O)c12 [Quercetin] | 2 ± 0.4 | – |
| COc1cc(C=NN=Cc2cc(OC)c(O)c(OC)c2)cc(OC)c1O [Syringaldazine] | 1 ± 0.1 | – |
| COc1cc(C(=O)O)cc(OC)c1O [Syringic acid] | 40 ± 0.5 | – |
| Nc1ccc(N)cc1 [p-Phenylenediamine] | – | 3600 |
